Measurements: patent publication US20140294956A1, “GASTRIC RETENTIVE EXTENDED RELEASE PHARMACEUTICAL COMPOSITIONS” (MALLINCKRODT LLC, priority 2011, published 2014)

Assay: Ethanol release testing at 100 rpm paddle speed (Example 32)
Type: physicochemical

## CC(=O)Nc1ccc(O)cc1 [APAP]
0% Ethanol, 15 min
  Percent Release, Mean: 52.2%
0% Ethanol, 30 min
  Percent Release, Mean: 54.6%
0% Ethanol, 45 min
  Percent Release, Mean: 56.8%
0% Ethanol, 60 min
  Percent Release, Mean: 58.8%
0% Ethanol, 75 min
  Percent Release, Mean: 60.8%
0% Ethanol, 90 min
  Percent Release, Mean: 62.6%
0% Ethanol, 120 min
  Percent Release, Mean: 66.0%
0% Ethanol, 240 min
  Percent Release, Mean: 78.6%
0% Ethanol, 480 min
  Percent Release, Mean: 95.5%
5% Ethanol, 15 min
  Percent Release, Mean: 52.6%
5% Ethanol, 30 min
  Percent Release, Mean: 55.1%
5% Ethanol, 45 min
  Percent Release, Mean: 57.1%
5% Ethanol, 60 min
  Percent Release, Mean: 58.9%
5% Ethanol, 75 min
  Percent Release, Mean: 60.7%
5% Ethanol, 90 min
  Percent Release, Mean: 62.3%
5% Ethanol, 120 min
  Percent Release, Mean: 65.5%
5% Ethanol, 240 min
  Percent Release, Mean: 77.2%
5% Ethanol, 480 min
  Percent Release, Mean: 94.4%
10% Ethanol, 15 min
  Percent Release, Mean: 51.7%
10% Ethanol, 30 min
  Percent Release, Mean: 54.1%
10% Ethanol, 45 min
  Percent Release, Mean: 56.0%
10% Ethanol, 60 min
  Percent Release, Mean: 57.8%
10% Ethanol, 75 min
  Percent Release, Mean: 59.5%
10% Ethanol, 90 min
  Percent Release, Mean: 61.1%
10% Ethanol, 120 min
  Percent Release, Mean: 64.1%
10% Ethanol, 240 min
  Percent Release, Mean: 75.5%
10% Ethanol, 480 min
  Percent Release, Mean: 93.5%
20% Ethanol, 15 min
  Percent Release, Mean: 50.2%
20% Ethanol, 30 min
  Percent Release, Mean: 53.4%
20% Ethanol, 45 min
  Percent Release, Mean: 55.5%
20% Ethanol, 60 min
  Percent Release, Mean: 57.3%
20% Ethanol, 75 min
  Percent Release, Mean: 59.0%
20% Ethanol, 90 min
  Percent Release, Mean: 60.5%
20% Ethanol, 120 min
  Percent Release, Mean: 63.3%
20% Ethanol, 240 min
  Percent Release, Mean: 76.0%
20% Ethanol, 480 min
  Percent Release, Mean: 91.9%
40% Ethanol, 15 min
  Percent Release, Mean: 16.7%
40% Ethanol, 30 min
  Percent Release, Mean: 30.4%
40% Ethanol, 45 min
  Percent Release, Mean: 38.5%
40% Ethanol, 60 min
  Percent Release, Mean: 43.1%
40% Ethanol, 75 min
  Percent Release, Mean: 46.1%
40% Ethanol, 90 min
  Percent Release, Mean: 48.3%
40% Ethanol, 120 min
  Percent Release, Mean: 51.1%
40% Ethanol, 240 min
  Percent Release, Mean: 60.8%
40% Ethanol, 480 min
  Percent Release, Mean: 77.2%
